Assays:
[1] = test system: gout induced by intra-articular uric acid at 20% in rats; assay: PIFIR model (pain-induced functional impairment, uric acid 20%), analgesic activity after topical administration; type: in vivo, Female Wistar rats; details: for ability to walk and visible adverse effects: doses used (3.2-31.6 mg/Kg topical), observation period of 5 h
Source text: Female Wistar rats [Crl:(WI)BR] were employed with a weight of between 180 and 200 g. All the experimental procedures followed the recommendations of the committee for Research and Ethical Issues of the International Association for the Study of Pain and the Guidelines on Ethical Standards for Investigations of Experiment Pain in Animals. The number of animals for experimentation was kept to a minimum: 6 rats per experimental point. The animals were kept in a room with alternating dark/light cycles.
Twelve hours before the experiments, the fur that covers the rats' major muscle group that covers the femur (4 cm×4 cm) on the outer side of the hind right paw was very carefully clipped with some scissors, leaving the fur cut to a maximum length of 2 mm and taking care not to injure the rats' skin. Food was also removed at this moment, leaving them only free access to water. All the experiments were performed during the light phase, with the animals only being used once.
The analgesic effects are assessed employing the PIFIR model, in other words, the rats were anesthetized in a glass desiccator, saturated with ether vapor. The gout was induced by applying an intra-articular injection (i.a.) of 0.05 ml of uric acid suspended in mineral oil in the right hind member, exactly in the femur-tibia-kneecap joint. A 1 mL glass syringe with a 4-mm-long No. 22 needle is used for the intra-articular injection. Immediately afterwards, an electrode is attached to each hind paw in the middle of the plantar calluses. The rats were left to recover from the anesthesia and placed in a 30-cm-diameter rotary stainless-steel cylinder. The cylinder was turned at 4 r.p.m., forcing the rats to walk for 3 min every half hour, for a total of 5 hours. The variable measured was the contact time of each one of the rats' hind paws in the cylinder. When the electrode makes contact with the cylinder a circuit is closed and the ratio between the contact time of the injured paw in respect of the uninjured one was recorded on a computer.
The temporary courses of each treatment for 5 continuous hours were determined, employing an “n” of 6 rats per treatment. For the purpose of this study, inducing harm in the experimental animals was unavoidable. However, care was taken to avoid causing unnecessary suffering to the animals. At the end of the experimental determinations, the rats were immediately sacrificed.
From the aforementioned experimental model, the results obtained from the analgesic assessment of the combination are expressed as a Functionality Index percentage (FI %). This FI % is the ratio obtained by dividing the contact time of the limb with uric acid by the contact time of the limb against of the same rats, and multiplying the result by 100. The temporary course (TC) curves are built by plotting FI % or Dysfunction against time (h). The analgesic or antinociceptive effect was estimated as the recuperation of FI %. […] All the values plotted in the figures correspond to the mean±error standard for 6 animals.

[2] = cited from earlier work
[3] = cited from earlier work; remark: listed apart in the source
[4] = 31.6 mg/Kg topical administration

| Compound | analgesic effects in temporary course (in words) [1, 4] | time point of the maximum effect [1, 4] [h] | analgesic effects in temporary courses (in words) ([1]; 3.16, 10.0 and 17.8 mg/Kg topical administration) | ability to walk and visible adverse effects [1] | solubility in water [2] | time over which the concentration in the top skin layers slowly declines ([3]; after the drug product is removed from the skin) | amount of aceclofenac absorbed, of the total dose applied ([3]; applied to the skin) [%] | amount retained on the top layers of skin, of the dose applied ([3]; applied to the skin) [%] | maximum effect (Emax), recovery of Functionality Index percentage (FI %) ([1]; 31.6 mg/Kg topical administration, rats, uric acid 20%, 5 h observation, mean ± standard error, n=6) [%] | analgesic effects in temporary courses (in words) ([1]; 3.16, 5.62, 10.0, 17.78 and 31.62 mg/Kg topical administration) |
| --- | --- | --- | --- | --- | --- | --- | --- | --- | --- | --- |
| C[C@H]1C[C@H]2[C@@H]3CCC4=CC(=O)C=C[C@]4(C)[C@@]3(F)[C@@H](O)C[C@]2(C)[C@@]1(O)C(=O)CO [betamethasone, (11ß,16ß)-9-fluoro-11,17,21-trihydroxy-16-methylpregna-1,4-diene-3,20-dione] | modest analgesic effects | 3.5 | does not generate analgesic effects | did not affect the ability of the rats to walk during the observation period or cause any visible adverse effect | insoluble in water | – | – | – | – | – |
| O=C(O)COC(=O)Cc1ccccc1Nc1c(Cl)cccc1Cl [aceclofenac, (2-{2-[(2,6-Dichlorophenyl)amino]phenyl}acetoxy) acetic acid] | – | – | – | did not affect the ability of the rats to walk during the observation period or cause any visible adverse effect | – | more than 16 hours | 13 | 6 to 9 | 42.0±6.9 | does show analgesic effects |
